Columns and labels:
[1] = tested on: dogs; conditions: single oral dose, and above; cited from earlier work
[2] = tested on: monkeys; conditions: single oral dose; cited from earlier work
[3] = tested on: human subjects; conditions: cited from earlier work
[4] = tested on: rodents
[5] = tested on: rodents; conditions: single oral dose, and above; cited from earlier work
[6] = tested on: humans; conditions: dose as low as; cited from earlier work

SMILES: CCCN[C@H]1CCc2nc(N)sc2C1 [pramipexole, (6S)-4,5,6,7-tetrahydro-N6-propyl-2,6-benzothiazole-diamine]
- dose at which vomiting occurred [1]: ≥ 0.0007 mg/kg
- dose at which major excitation was displayed [2]: 3.5 mg/kg
- initial single dose not tolerated [3]: greater than 0.20 mg
- equivalent human dose of the rodent lethal dose ([4]; human equivalent): 7 to 12 mg/kg
- equivalent human dose of the rodent lethal dose for a 70 kg individual ([4]; rodents, in vivo): 500 to 850 mg
- dose at which death occurred [5]: 70 to 105 mg/kg
- dose shown to cause somnolence [6]: 1.5 mg
